The source of these data is PMC11311998, “AR71, Histamine H3 Receptor Ligand—In Vitro and In Vivo Evaluation (Anti-Inflammatory Activity, Metabolic Stability, Toxicity, and Analgesic Action)” (International Journal of Molecular Sciences, 2024).

SMILES strings stand for the structures. Several values for one entry are separate records, joined by “and”; a condition that tells them apart may be missing. Equal values may be shown once.

For data set [1], the system named is CCI-exposed mice. The data set is described as follows: cold plate test in CCI neuropathic pain model. In kind it is in vivo, mouse. On the procedure: (§1) The effects of a single intraperitoneal (i.p.) injection of AR71 at doses of 5, 10, and 20 mg/kg on mechanical (von Frey test) and thermal (cold plate and tail flick tests) stimulus were evaluated on day 14 following sciatic nerve injury (Figure 15). There were seven to eight animals per group. All these tests were performed in three time series after the administration of the compound. In the case of the von Frey test—after 30, 90, and 180 min; the cold plate test—after 35, 95, and 185 min; and the tail flick test—after 40, 100, and 190 min.
The mice were randomly divided into four experimental groups. […] All data from behavioural tests were analysed using a one-way ANOVA with Bonferroni’s multiple comparison post hoc test. […]
The cold plate test (performed by the Cold/Hot Plate Analgesia Meter, Columbus Instruments, N. Hague Ave, Columbus, OH, USA) was used to assess sensitivity to noxious thermal stimuli. […] The mice were placed on a cold plate, and the time it took to lift the injured paw was recorded.

Data set [2] concerns the target hH4R. Details: method as in PMID 36370200. The following applies: cited from earlier work.
In data set [3] the target is T1, hH3R (Homo sapiens, UniProt Q9Y5N1).
T1 construct: expressed in transfected cells; host or cells: HEK 293 cells stably expressing hH3R, provided by Dr Thierry Calmels, Bioprojet-Biotech (France)
T1 sequence (Q9Y5N1 whole entry): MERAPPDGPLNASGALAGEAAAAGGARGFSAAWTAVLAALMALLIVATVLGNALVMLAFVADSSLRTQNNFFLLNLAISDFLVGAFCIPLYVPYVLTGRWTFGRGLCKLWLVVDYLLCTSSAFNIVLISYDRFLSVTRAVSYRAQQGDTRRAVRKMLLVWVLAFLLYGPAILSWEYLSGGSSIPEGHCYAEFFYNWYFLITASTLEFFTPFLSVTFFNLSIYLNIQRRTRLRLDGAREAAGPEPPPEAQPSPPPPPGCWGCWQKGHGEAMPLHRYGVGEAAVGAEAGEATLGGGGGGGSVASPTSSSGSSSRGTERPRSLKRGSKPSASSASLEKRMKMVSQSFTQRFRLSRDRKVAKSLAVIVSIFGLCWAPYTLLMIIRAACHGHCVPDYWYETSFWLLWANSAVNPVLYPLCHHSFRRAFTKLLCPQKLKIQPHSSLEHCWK
The data set is described as follows: cAMP accumulation assay in HEK 293 cells stably expressing the hH3R. In kind it is cell-based. As to the method: The intrinsic activity of AR71 was evaluated in a 3′,5′-cyclic adenosine monophosphate (cAMP) accumulation assay in human embryonic kidney (HEK) 293 cells, stably expressing the hH3R [42].
The intrinsic activity of AR71 was evaluated in a 3′,5′-cyclic adenosine monophosphate (cAMP) accumulation assay in human embryonic kidney (HEK) 293 cells, stably expressing the hH3R [42], using the LANCE Ultra cAMP kit (Perkin Elmer, Waltham, MA, USA). The applied method was intended to measure the levels of cAMP generated because of changes in adenylyl cyclase activity mediated by GPCRs. The assay is based on the competition between the europium (Eu) chelate-labelled cAMP tracer and sample cAMP for binding sites on cAMP-specific monoclonal antibodies labelled with the ULight dye. The effect of AR71 (concentrations: 10^−10–10^−5 M) on reversing the inhibition of cAMP production by (R)-(-)-α-methyl histamine (30 nM) in forskolin-stimulated (10 μM) cells was evaluated. The experiment was conducted according to the principles described earlier. Experiments were performed three times in triplicates, and IC50 values were determined using GraphPad Prism 8.4.3 software.
Figure S1. Forskolin-stimulated cAMP accumulation studies in HEK 293 cells expressing the human histamine H3
receptor, co-treated with (R)(-)-α-Methylhistamine […] and AR71 (30 nM). […]

The subject of data set [4] is CCI-exposed mice. Nature of the data set: CCI neuropathic pain model, all behavioural tests and observation. In kind it is in vivo, mouse. As to the method:
as §1
The mice were randomly divided into four experimental groups. One group received a vehicle treatment (10% DMSO/10%(2-Hydroxypropyl)-β-cyclodextrin/water for injection, i.p.), while the other three groups were administered with AR71 at doses of 5, 10, or 20 mg/kg of body weight (b.w.), i.p. Baseline measurements for all tests were conducted before the compounds were injected, and the results are presented as percentages of the maximal possible effect (% MPE). […] All data from behavioural tests were analysed using a one-way ANOVA with Bonferroni’s multiple comparison post hoc test.
Assessment of the analgesic activity of AR71 was performed using a mouse experimental model of chronic constriction injury of the sciatic nerve, by three tests including the von Frey test, the cold plate test, and the tail flick test. […]

Usually Ki stands for the equilibrium dissociation constant of an inhibitor or competing ligand from its target. The IC50 is the concentration at which inhibition is half-maximal. Consider `COc1cc(/C=C/C(=O)c2ccc(OCCCN3CCCCC3)cc2)cc(OC)c1OC` [AR71, (E)-3-(3,4,5-trimethoxyphenyl)-1-(4-(3-(piperidin-1-yl)propoxy)phenyl)prop-2-en-1-one], for which the “effect in cold plate test vs control” value in data set [1] (5, 10 and 20 mg/kg i.p., 35 min (5 mg/kg p < 0.05; 10 and 20 mg/kg p < 0.001)) was “Analgesic effects”; in data set [1] (95 and 185 min after injection, 10 and 20 mg/kg i.p.), “only the two higher doses were effective”. For the same molecule, the Ki in data set [2] was 2820 nM and > 2500 nM. In addition, the “intrinsic activity profile at H3R” value in data set [3] (counteracts inhibition of cAMP production by (R)-(-)-α-methyl histamine in forskolin-stimulated cells) is “H3R antagonist/inverse agonist”. Besides, the IC50 in data set [3] (reversal of inhibition of cAMP production by (R)-(-)-α-methyl histamine (30 nM) in forskolin-stimulated (10 μM) cells) is 83.5 ± 11.9 nM. Besides, the “sedative, locomotor or gastrointestinal effects” value in data set [4] (5, 10, 20 mg/kg i.p.) is given as “no sedative, locomotor, or gastrointestinal effects”. For the same molecule, the “dose with the highest analgesic effects” value in data set [4] (single i.p. injection, doses 5, 10, 20 mg/kg, day 14 after CCI) came out at 20 mg/kg.
